Source: patent publication US11092602B2, “Methods and compositions relating to proteasome inhibitor resistance” (Whitehead Institute for Biomedical Research, priority 2015, dated 2021)

Experiments:
[1] = system: protein degradation and protein synthesis; experiment: Translation and degradation assays (3H-phenylalanine); assay type: cell-based, human; conditions: 10 nM bortezomib
Description: Next we examined the impact of reducing PSMD2 levels on protein degradation and protein synthesis. Cells were labeled with tritiated-phenylalanine for 24 hrs. We then separately measured the rates at which labeled proteins were degraded through the proteasome and through the lysosome.
To measure rates of protein synthesis, cells were pulse labeled with tritiated-phenylalanine for 1 hr.
For measuring overall rate of synthesis, cells were pretreated with 10 nM Bortezomib for 20 hours, then incorporation of ^3H-phenylalanine was measured for 1 h. The rate of synthesis was described as counts incorporated into cell proteins per hour and per μg of total cell proteins. When working with T47D cells, knockdown of PSMD2 was induced for 3 days with doxycycline before bortezomib treatment. For measuring overall rates of protein degradation, pulse-labeling with ^3H-phenylalanine for 24 hours was done before the bortezomib treatment as previously described (Zhao et al., 2007).

[2] = molecular target: β5-subunit (Homo sapiens, UniProt P28074); conditions: cited from earlier work
[3] = system: HepG2 cells; experiment: Cell viability assay (resazurin) in HepG2 cells expressing proteasome subunit shRNAs; assay type: cell-based, human
Text: Next, we asked if a simple reduction in the expression of 19S subunits could protect against the toxicity of proteasome inhibitors. We assembled a panel of shRNA-expressing lentiviruses targeting seventeen 19S subunits and three 20S subunits (PSMB5, PSMB7 and PSMA3). Each gene was targeted separately using four different shRNAs (FIG. 2, Table S2) and we averaged the effects on viability from these four hairpins.
For the analysis of multiple proteasome subunit knockdown 80 shRNA targeting 20 proteasome subunits (4 different shRNAs) and 13 control shRNAs (Table S2) in pLKO lentiviral vectors from the RNAi consortium shRNA library were utilized. Cells were plated in 96 wells with the volume of 100 μL media at the concentration of 2500 cells/well. 24 hours after plating media was discarded and 50 μl with 7.5-10 μg/μ1 of polybrene and 7 μl of purified virus was added. After incubation for 24 hours the media was discarded and 200 μl of fresh media with 1 μg/ml puromycin was added. Bortezomib was added where specified. pLKO lentiviral vectors from the RNAi consortium shRNA library targeting the PSMC5 and PSMD2 (Table 2) were further used to create HepG2 and T47D stably overexpressing these shRNAs by selection with puromycin 1 μg/ml for one week.
Relative cell growth and survival were measured in 96-well microplate format in the shRNA experiments and in 384 well format in the drug toxicity assays, by using the fluorescent detection of resazurin dye reduction as an endpoint (544 nm excitation and 590 nm emission). 2,500 cells in 96 wells format or 1,000 cells in 384 well format were plated 24 hours before compound exposure (for 72 hours or indicated time). Each analysis was performed at least with three replicas.

[4] = system: stress-response transcripts; experiment: RNA-seq gene expression profiling of PSMD2 knockdown and control (shLacZ) cells; assay type: cell-based, human; conditions: control cells; 12 nM bortezomib for 24 hours
Description: Sequence data confirmed that PSMD2 mRNA levels were reduced by ˜50% in both lines. We examined basal gene expression and the effects of bortezomib treatment on these cells, comparing them to cells carrying a control lacZ shRNA construct.
RNA was extracted from triplicate samples and RNA libraries were prepared for sequencing by NEBNext Ultra RNA Library Prep Kit for Illumina (New England BioLabs, Ipswich, Mass.), including the removal of large and small RNA, synthesis of cDNA, and construction of cDNA libraries. Libraries were barcoded using NEBNext Multiplex Oligos for Illumina (NEB). Libraries were sequenced using Illumina HiSeq 2500, with paired-end 100 bp reads. Paired-end reads were aligned to UCSC human transcriptome 19 (hg19) using TopHat (Bowtie v2.0.9). Alignment quality and read distribute was assessed via SAMtools (v0.1.19) (Li et al., 2009). Transcript assembly was conducted using cufflinks (v2.2.1). […] RNA sequencing data have been deposited in the NCBI Sequence Read Archive under accession number: PRJNA281613.
Genes differentially expressed upon PSMD2 knockdown in either the presence or absence of bortezomib treatment were determined as follows (FIG. 3E): For each gene in the matrix described above, the values were normalized to the average expression in the LacZ control cells. […]

[5] = cells with transiently reduced PSMD2, 20 hours

SMILES: CC(C)C[C@H](NC(=O)[C@H](Cc1ccccc1)NC(=O)c1cnccn1)B(O)O [bortezomib]
- rates of proteolysis by the lysosome ([1]; 20-hour treatment): remained unchanged
- inhibition of proteasome degradation [1, 5]: strongly counteracted
- suppression of protein synthesis [1, 5]: strongly counteracted
- rate of protein degradation ([1]; control cells, 20-hour treatment): sharply decreased
- rate of protein synthesis ([1]; control cells, 20 hours): sharply decreased
- potency of inhibition of the β5-subunit [2]: low nanomolar
- proliferation of lines stably expressing shRNA targeting PSMC5 or PSMD2 ([3]; HepG2, 12 nM bortezomib): continued proliferating
- concentration of bortezomib that completely inhibited the proliferation of control cells ([3]; HepG2 control cells): 12 nM
- EC50 values increased versus parental line ([3]; HepG2 lines with shRNA-driven modest reduction in PSMD2, 4 days): three to six
- transcriptional response [4]: sharp increase in stress-response transcripts
